# Species: Rattus norvegicus
# Experiment: Open TG-GATES - Regimen: Single
# Type: toxicity, organism-based, Sprague-Dawley
# Set-up: regimen Single, gender Male, age 6 weeks
# Settings: in vivo, po, 0 mg/kg, route gavage, dose level Control; for APTT / Bas / Eos / Fbg / Hb / Ht / Lym / MCH / MCHC / MCV / Mono / Neu / PT / Plat / RBC / Ret / WBC: tissue Blood; for KIDNEY_L / KIDNEY_R / KIDNEY_TOTAL: tissue Kidney; for LIVER: tissue Liver; for A/G / ALP / ALT / AST / BUN / CRE / Ca / Cl / DBIL / GLC / IP / K / LDH / Na / PL / RALB / TBIL / TC / TG / TP / gamma-GTP: tissue Plasma
structure (smiles),measurement,setting,value
CN/C(=N/CCSCc1nc[nH]c1C)NC#N [CIMETIDINE],TERMINAL_BW,3 h,213.9 g
same,APTT,3 h,18.4 s
same,Bas,3 h,0%
same,Eos,3 h,1%
same,Fbg,3 h,217.6 mg/dL
same,Hb,3 h,12.7 g/dL
same,Ht,3 h,37.4%
same,Lym,3 h,75.4%
same,MCH,3 h,21.3 pg
same,MCHC,3 h,34%
same,MCV,3 h,62.5 fL
same,Mono,3 h,3.2%
same,Neu,3 h,19.2%
same,PT,3 h,12.6 s
same,Plat,3 h,139.7 x10_4/uL
same,RBC,3 h,598.4 x10_4/ul
same,Ret,3 h,7.9%
same,WBC,3 h,95.7 x10_2/uL
same,KIDNEY_L,3 h,1 g
same,KIDNEY_R,3 h,1 g
same,KIDNEY_TOTAL,3 h,2 g
same,LIVER,3 h,10.1 g
same,A/G,3 h,1.7
same,ALP,3 h,1080.4 IU/L
same,ALT,3 h,37.4 IU/L
same,AST,3 h,71.2 IU/L
same,BUN,3 h,12.4 mg/dL
same,CRE,3 h,0.3 mg/dL
same,Ca,3 h,10.8 mg/dL
same,Cl,3 h,102.6 meq/L
same,DBIL,3 h,0.072 mg/dL
same,GLC,3 h,189 mg/dL
same,IP,3 h,8.8 mg/dL
same,K,3 h,3.7 meq/L
same,LDH,3 h,134.2 IU/L
same,Na,3 h,140.8 meq/L
same,PL,3 h,147.6 mg/dL
same,RALB,3 h,3.4 g/dL
same,TBIL,3 h,0.1 mg/dL
same,TC,3 h,77.2 mg/dL
same,TG,3 h,65 mg/dL
same,TP,3 h,5.4 g/dL
same,gamma-GTP,3 h,1.4 IU/L
same,TERMINAL_BW,6 h,211.8 g
same,APTT,6 h,19.8 s
same,Bas,6 h,0%
same,Eos,6 h,1%
same,Fbg,6 h,219.2 mg/dL
same,Hb,6 h,13.2 g/dL
same,Ht,6 h,37.8%
same,Lym,6 h,75.6%
same,MCH,6 h,21.6 pg
same,MCHC,6 h,34.7%
same,MCV,6 h,62.2 fL
same,Mono,6 h,3.4%
same,Neu,6 h,18.8%
same,PT,6 h,12.8 s
same,Plat,6 h,127.2 x10_4/uL
same,RBC,6 h,607.6 x10_4/ul
same,Ret,6 h,8%
same,WBC,6 h,107.6 x10_2/uL
same,KIDNEY_L,6 h,1 g
same,KIDNEY_R,6 h,1 g
same,KIDNEY_TOTAL,6 h,1.9 g
same,LIVER,6 h,9.5 g
same,A/G,6 h,1.5
same,ALP,6 h,902.6 IU/L
same,ALT,6 h,38 IU/L
same,AST,6 h,70.2 IU/L
same,BUN,6 h,10.2 mg/dL
same,CRE,6 h,0.4 mg/dL
same,Ca,6 h,10.7 mg/dL
same,Cl,6 h,101.6 meq/L
same,DBIL,6 h,0.074 mg/dL
same,GLC,6 h,195.4 mg/dL
same,IP,6 h,9.7 mg/dL
same,K,6 h,3.8 meq/L
same,LDH,6 h,161.6 IU/L
same,Na,6 h,140.6 meq/L
same,PL,6 h,151.2 mg/dL
same,RALB,6 h,3.3 g/dL
same,TBIL,6 h,0.1 mg/dL
same,TC,6 h,81.8 mg/dL
same,TG,6 h,64.4 mg/dL
same,TP,6 h,5.5 g/dL
same,gamma-GTP,6 h,1.4 IU/L
same,TERMINAL_BW,9 h,206.6 g
same,APTT,9 h,17.6 s
same,Bas,9 h,0%
same,Eos,9 h,1%
same,Fbg,9 h,222.6 mg/dL
same,Hb,9 h,13.1 g/dL
same,Ht,9 h,37.9%
same,Lym,9 h,75.6%
same,MCH,9 h,21.5 pg
same,MCHC,9 h,34.6%
same,MCV,9 h,62 fL
same,Mono,9 h,3%
same,Neu,9 h,19.2%
same,PT,9 h,12.8 s
same,Plat,9 h,128 x10_4/uL
same,RBC,9 h,612 x10_4/ul
same,Ret,9 h,7.6%
same,WBC,9 h,93 x10_2/uL
same,KIDNEY_L,9 h,0.9 g
same,KIDNEY_R,9 h,0.9 g
same,KIDNEY_TOTAL,9 h,1.8 g
same,LIVER,9 h,8.7 g
same,A/G,9 h,1.6
same,ALP,9 h,842 IU/L
same,ALT,9 h,30 IU/L
same,AST,9 h,66.2 IU/L
same,BUN,9 h,12.6 mg/dL
same,CRE,9 h,0.3 mg/dL
same,Ca,9 h,10.5 mg/dL
same,Cl,9 h,102.2 meq/L
same,DBIL,9 h,0.074 mg/dL
same,GLC,9 h,189.2 mg/dL
same,IP,9 h,10 mg/dL
same,K,9 h,3.8 meq/L
same,LDH,9 h,120.4 IU/L
same,Na,9 h,140.8 meq/L
same,PL,9 h,139 mg/dL
same,RALB,9 h,3.3 g/dL
same,TBIL,9 h,0.1 mg/dL
same,TC,9 h,77.4 mg/dL
same,TG,9 h,47.8 mg/dL
same,TP,9 h,5.4 g/dL
same,gamma-GTP,9 h,1.4 IU/L
same,TERMINAL_BW,24 h,224.9 g
same,APTT,24 h,18.8 s
same,Bas,24 h,0.2%
same,Eos,24 h,0.8%
same,Fbg,24 h,218.6 mg/dL
same,Hb,24 h,13.5 g/dL
same,Ht,24 h,40%
same,Lym,24 h,81.4%
same,MCH,24 h,21.6 pg
same,MCHC,24 h,33.8%
same,MCV,24 h,63.8 fL
same,Mono,24 h,3%
same,Neu,24 h,13.2%
same,PT,24 h,12.1 s
same,Plat,24 h,130.4 x10_4/uL
same,RBC,24 h,627.6 x10_4/ul
same,Ret,24 h,7.2%
same,WBC,24 h,98.2 x10_2/uL
same,KIDNEY_L,24 h,1 g
same,KIDNEY_R,24 h,1 g
same,KIDNEY_TOTAL,24 h,2 g
same,LIVER,24 h,11 g
same,A/G,24 h,1.6
same,ALP,24 h,959.8 IU/L
same,ALT,24 h,36.8 IU/L
same,AST,24 h,64 IU/L
same,BUN,24 h,15.6 mg/dL
same,CRE,24 h,0.4 mg/dL
same,Ca,24 h,10.9 mg/dL
same,Cl,24 h,101.6 meq/L
same,DBIL,24 h,0.1 mg/dL
same,GLC,24 h,223.8 mg/dL
same,IP,24 h,7.7 mg/dL
same,K,24 h,4 meq/L
same,LDH,24 h,147.6 IU/L
same,Na,24 h,140.2 meq/L
same,PL,24 h,158.6 mg/dL
same,RALB,24 h,3.5 g/dL
same,TBIL,24 h,0.2 mg/dL
same,TC,24 h,79.8 mg/dL
same,TG,24 h,118.8 mg/dL
same,TP,24 h,5.6 g/dL
same,gamma-GTP,24 h,1.8 IU/L
